From US10920198B2, “Delta133p53beta and delta133p53gamma isoforms are biomarkers of cancer stem cells” (Centre National de la Recherche Scientifique (CNRS), priority 2015, dated 2021)

B1: Δ133p53γ: human p53 isoform (SEQ ID NO: 3), overexpressed from pMSCVhyg retroviral vector (protein, listed as Homo sapiens)
chain: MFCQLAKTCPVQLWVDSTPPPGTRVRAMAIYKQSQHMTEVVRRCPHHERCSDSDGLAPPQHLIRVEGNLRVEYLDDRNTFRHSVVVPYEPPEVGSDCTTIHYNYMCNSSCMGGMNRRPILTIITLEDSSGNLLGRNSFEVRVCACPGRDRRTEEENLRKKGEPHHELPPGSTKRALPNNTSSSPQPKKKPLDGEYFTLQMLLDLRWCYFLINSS
modifications: SITE (1)..(214) Homo sapiens tumor protein p53, isoform delta133p53gamma (Genbank NP_001119589.1)

Assays:
Assay type in all cases: cell-based, human
[1] = tested on: MCF-7 cells; test: Mammosphere formation in MCF-7 cells; details: MCF-7 cells after transduction, compared to control cells
Experimental: For mammosphere formation, 1000 cells/ml (500 cells/well) were plated in Ultra Low Cluster Plate, 24-well, Flat Bottom (Corning Inc) with MammoCult™ Medium enriched with MammoCult™ Proliferation Supplements, hydrocortisone and heparin (Stem Cell Technologies) and cultured for 15 days. For all mammosphere assays, at least three independent experiments for each condition were carried out and repeated 8-12 times. For self-renewal experiments, transfected cells were subjected to a first cycle of mammosphere formation. Upon 15 days of culture the created mammospheres were dissociated and cells were re-plated in identical conditions as for the first plating.

[2] = tested on: c-Myc, Sox 2, Oct 3/4 and Nanog; test: Expression of pluripotency/reprogramming factors in MCF-7 cells (RT-qPCR, western blot); details: MCF-7 cells after transduction; mRNA and/or protein
Source text: (§1) The following antibodies were used for immunoblotting: anti-c-Myc (9E10 mouse hybridoma clone), -Nanog (sc-81961, Santa Cruz Biotechnology), -Oct 3/4 (sc-8630, Santa Cruz Biotechnology), -Sox 2 (sc-17320, Santa Cruz Biotechnology), -p53 (DO-1; sc-126 Santa Cruz Biotechnology), -p53 Sapu (Vojtesek et al. 1995), -α-tubulin (clone DM1A, Sigma-Aldrich), -β-actin (clone AC-74 Sigma-Aldrich), -p21 (sc-397 Santa Cruz Biotechnology) and -Flag (clone M2; Sigma-Aldrich). Secondary HRP-conjugated antibodies were from GE Healthcare. For luminescence quantification, cells were serially diluted and incubated with 0.5 mM D-luciferin (Sigma). Luminescence was quantified with a Polarstar Omega instrument (BMG LABTECH).
Total RNA was extracted (Qiagen) and reverse transcription (RT) was performed with 1-5 μg of total RNA using the SuperScript® III Reverse Transcriptase (Life Technologies) at 50° C. Levels of different mRNAs were quantified by real-time qPCR on a LightCycler480 apparatus (Roche). Briefly, 20 ng cDNA was amplified using 0.168 μM of each primer, 0.2 μM of probe (Table 4) and 1× LightCycler® 480 Probes Master Mix (Roche) for the p53 isoforms, or commercially available primers (Qiagen) and 1× LightCycler® 480 Sybr Green Master Mix (Roche) for the other genes. Data were normalized to the internal standard TBP. The different primers used and their corresponding sequences have been previously described (Bourdon et al., 2005). For each single-well amplification reaction, a threshold cycle (Ct) was calculated by using the LightCycler480 program (Roche) in the exponential phase of amplification. Relative changes in gene expression were determined using the 2ΔΔCt method and reported relative to a control. All quantification studies were performed with at least three independent experiments, repeated twice, for each condition. Data are presented as the arithmetic mean±SEM.

[3] = tested on: Δ133p53 (α, β and γ) isoforms; test: Expression of Δ133p53 isoforms in MCF-7 cells (RT-qPCR, western blot); details: MCF-7 cells after transduction; RT-qPCR
Source text: as §1
Total RNA was extracted (Qiagen) and reverse transcription (RT) was performed with 1-5 μg of total RNA using the SuperScript® III Reverse Transcriptase (Life Technologies) at 50° C. Levels of different mRNAs were quantified by real-time qPCR on a LightCycler480 apparatus (Roche). […] For each single-well amplification reaction, a threshold cycle (Ct) was calculated by using the LightCycler480 program (Roche) in the exponential phase of amplification. Relative changes in gene expression were determined using the 2ΔΔCt method and reported relative to a control. All quantification studies were performed with at least three independent experiments, repeated twice, for each condition. […]

[4] = tested on: MCF-7 cells; test: Flow cytometry of CD44/CD24 double labeling in MCF-7 cells; details: MCF-7 cells after transduction
Experimental: Single cell suspensions were labeled on ice with CD24-FITC, CD44-PE and their respective isotype controls (BioLegend) at the dilutions indicated by the manufacturer in Phosphate Buffered Saline (PBS) with 10% FBS for 30 min. Cells were then washed once with PBS and re-suspended in PBS/10% FBS. All samples were analyzed on a CyAn analyzer ([…] Coulter, Inc) using Sytox Blue (Life Technologies) to monitor cell viability.

Row | Molecule | mammosphere formation [1] | c-Myc expression [2] | expression of Oct 3/4, Nanog and Sox 2 [2] | expression of the Δ133 isoforms [3] | proportion of CD44+/CD24− cells [4]
1 | Sh6: shRNA, 5′-GTGAGCGCTTCGAGATGTT-3′ (SEQ ID NO: 19); targets the 3′ end of the α isoforms (target site or template, no part of the molecule; short hairpin RNA, only the targeted sequence is given, further chemistry not given here) | did not affect |  |  |  | 
2 | Sh2: shRNA, 5′-GTCCAGATGAAGCTCCCAGAA-3′ (SEQ ID NO: 18); targets the long TAp53 and Δ40p53 isoforms (target site or template, no part of the molecule; short hairpin RNA, only the targeted sequence is given, further chemistry not given here) | no effect | but not of c-Myc | increased expression | increased | not affected
3 | Sh5: shRNA, 5′-GGACCAGACCAGCTTTCA-3′ (SEQ ID NO: 16); targets the 3′ end of the β isoforms (target site or template, no part of the molecule; short hairpin RNA, only the targeted sequence is given, further chemistry not given here) | significantly reduced |  |  |  | 
4 | Sh1: shRNA, 5′-GACTCCAGTGGTAATCTAC-3′ (SEQ ID NO: 13); knocks down all p53 isoforms (target site or template, no part of the molecule; short hairpin RNA, only the targeted sequence is given, further chemistry not given here) | significant reduction | no effect | no effect |  | 
5 | Sh4: shRNA, 5′-CTTGTGCCCTGACTTTCAA-3′ (SEQ ID NO: 15); targets the 5′ UTR of the Δ133 isoforms (α, β and γ) (target site or template, no part of the molecule; short hairpin RNA, only the targeted sequence is given, further chemistry not given here) | significantly reduced | not affected | significantly down-regulated |  | 
6 | B1 | milder effect |  |  |  | 
